This note sets out measurements from US11370775B2, “Substituted benzimidazole derivatives as D-amino acid oxidase (DAAO) inhibitors” (NATIONAL TAIWAN UNIVERSITY, priority 2016, dated 2022).

Experiment [1] deals with MK-801-induced hyperlocomotion in C57BL/6 mice. Nature of the experiment: Open field, MK-801-induced hyperlocomotion. Conditions: for Effect on MK-801 induced hyperlocomotion (open field): MK-801 0.2 mg/kg i.p., mice; for Effect on MK-801-induced hyperlocomotion (FIG. 1): different dosages, compared to the MK-801 group. In kind it is in vivo. The text has this: (§1) The NMDA-receptor antagonist MK-801-induced negative or cognitive deficits in C57BL/6 mice were in a well-established drug-induced schizophrenia mouse model and as a useful pharmacological animal model to identify if the RS-D7, its analog and its prodrug improve the symptoms through the NMDA receptor.
(§2) All wild-type (WT) mice used in this study were backcrossed onto a C57BL/6J background from the Laboratory Animal Center of National Taiwan University Hospital, and all behavioral examinations were conducted in WT mice. For acclimatizing to laboratory conditions, the mice were allowed free access to food and water and were housed in groups with a 12 hours light-dark cycle in a temperature and humidity controlled room of the Psychology Department, National Taiwan University. All animals within the age of 3 months were housed individually one week before experiment testing with food and water available ad libitum. In the beginning of the experiments, the mice were handled and weighted daily at least 1 week before the behavioral experiments. The entire animal procedures were performed according to protocols approved by the Animal Care and Use Committee established by the National Taiwan University.
(§3) MK-801 was dissolved in saline and administered at a volume of 0.01 ml/g body weight. RS-D7, Drug 12083 (analog of RS-D7) and was freshly dissolved in 1% CMC to the concentration of 2 mg/ml before usage. Prodrug 28095 was freshly dissolved in NMP:HP-beta-CD:H2O (5:25:70) to the concentration of 2 mg/ml before usage. All animals were given vehicle (saline) or MK-801 (0.2 mg/kg, i.p.) 25 minutes before the behavioral experiments. Both vehicle (1% CMC or NMP:HP-beta-CD:H2O) and experimental groups (RS-D7, Drug 12083 or Prodrug 28095) were treated after 5 minutes MK-801 administration with the appropriate dose via P.O. injections (at a volume of 0.01 ml/g body weight).
(§4) For investigating the treatment effect of RS-D7 for negative and cognitive symptoms, a series of three behavioral tests (run from the first to the third week), which included open field, sucrose preference test and prepulse inhibition were performed in sequence with a 1-week interval between tests.
To assess spontaneous locomotor activity, each subject was placed into the center of an open-field apparatus (25.40*25.40*40.64 cm^3, Coulbourn Instruments, Whitehall, Pa., USA) under dim lighting condition (60 lx). Motor activity parameters (including total travel distance and travel distance per 10 minutes) were monitored and recorded over a 60 minutes period by using Smart video tracking software (Panlab, Harvard apparatus, US). For comparing the treatment effects of different treatment groups, the percentage change of rescue effect on MK-801-induced hyperlocomotion was calculated using the following formula: %=(rescue effect of drug−MK-801 effect)×100%/MK-801 effect.

For a further experiment, the target named is T1, porcine kidney DAO (Sus scrofa, UniProt P00371).
T1 construct: purchased Sigma-Aldrich; host or cells: porcine kidney
Nature of the experiment: pkDAO enzymatic assay (porcine kidney DAO IC50 assay). In kind it is biochemical. To be noted: D-alanine substrate, pH 8.3, 37° C., without FAD. The protocol: The DAAO enzymatic activity assay was modified according to the report of Oguri et al (Oguri, S., Screening of d-amino acid oxidase inhibitor by a new multi-assay method. Food chemistry 2007, 100 (2), 616). The DAAO activity was measured by using substrate D-alanine reaction produced hydrogen peroxide (H2O2) to further react with 3-(4-hydroxyphenyl) propionic acid (HPPA). The HPPA were oxidized by H2O2 and peroxidase to become the fluorogenic dimer which was measured to represent the activity of DAAO.
For porcine kidney DAO IC50 assay, the DAO substrate was prepared in 50 mM D-alanine (dissolved in 0.2 M Tris-HCl buffer, pH 8.3). A 100 μl of D-alanine solution was mixed with 4 μl (in 100% dimethyl sulfoxide, DMSO) of different concentrations of candidate compounds shown in tables below ranging from 48.83 μM, 97.66 μM, 195.31 μM, 390.63 μM, 781.25 μM, 1.56 mM, 3.13 mM, 6.25 mM, 12.50 mM, 25.00 mM, and 50.00 mM, with a final DMSO concentration of 0.167% in each reaction concentration. 10 μl of D-alanine and candidate compound mixture was incubated with 220 μl of Reaction Master Mix in black 96 well plate at 37° C. for 5 minutes. The Reaction Master Mix contained 110 μl of 5 U/mL porcine kidney DAO (Sigma-Aldrich, USA) solution (dissolved with 0.2 M Tris-HCl buffer, pH 8.3), 1.1 mL of 15 U/mL peroxidase solution (dissolved with 0.2 M Tris-HCl buffer, pH 8.3), 1.1 mL of 20 mM HPPA solution (dissolved with 0.2 M Tris-HCl buffer, pH 8.3), and 22 ml of 2 M Tris-HCl buffer (pH 8.3) for 110 reaction assays.
Fluorescence intensity (Fs) was measured at 405 nm by irradiation excitation at 320 nm. The higher the DAO enzymatic activity was, the higher the fluorescence intensity. The fluorometric inhibition indicator (Fi) was obtained from the following equation: Fi=(Fs-FDrug)/(FDMSO), where the fluorescent drug blank (FDrug) was measured in the drug mixture solution (using 0.2 M Tris HCl buffer, pH 8.3, without D-alanine). A DMSO blank (FDMSO) was measured under a 100% DMSO solution.
Although FAD is generally included in the reaction mixture in the D-amino acid oxidase assay since it easily dissociates from the holoenzyme, the present method was performed without FAD. The inhibitory effect of DAO inhibitors was compared by using inhibitory concentrations leading to 50% inhibition of DAAO activity (IC50). The IC50 values were calculated by nonlinear regression model using GraphPad Prism, version 5(GraphPad Software, Inc., La Jolla, Calif.).

Experiment [2] relates to MK-801-induced anhedonia in C57BL/6 mice. Nature of the experiment: Sucrose preference test, MK-801-induced anhedonia. In kind it is in vivo. Conditions: for Effect on MK-801 induced anhedonia (sucrose preference): MK-801 0.2 mg/kg i.p., mice; for Effect on anhedonia after acute MK-801 injection (FIG. 2): different dosages.
Text: as §1, §2, §3, §4
To assess the anhedonia, one of the negative symptoms of schizophrenia, all mice underwent 4-day testing. In the beginning of the sucrose preference, all mice were deprived of water for 23 hours in all the experiment from one day before the first day. On the first day, each mouse was given free access to 2 identical bottles with water for 1 hour. Then, the 2 identical bottles were replaced that one filled with 1% (wt/vol) sucrose solution and the other with water on the second day. On the third and fourth day, each mouse was received MK-801 and RS-D7 treatment before the experiment, and also free accessed to bottles for 1 hour. After the experiment, the 2 bottles were weighted to measure the 1-hour consumption of sucrose solution and water. The sucrose preference percentage (SPP) was calculated using the following formula: % SPP=sucrose solution consumption (g)×100%/[water consumption (g)+sucrose solution consumption (g)].

The structures appear in SMILES notation.

As usually defined, the IC50 is the concentration needed to halve the response being measured.

T1 sequence (P00371 whole entry): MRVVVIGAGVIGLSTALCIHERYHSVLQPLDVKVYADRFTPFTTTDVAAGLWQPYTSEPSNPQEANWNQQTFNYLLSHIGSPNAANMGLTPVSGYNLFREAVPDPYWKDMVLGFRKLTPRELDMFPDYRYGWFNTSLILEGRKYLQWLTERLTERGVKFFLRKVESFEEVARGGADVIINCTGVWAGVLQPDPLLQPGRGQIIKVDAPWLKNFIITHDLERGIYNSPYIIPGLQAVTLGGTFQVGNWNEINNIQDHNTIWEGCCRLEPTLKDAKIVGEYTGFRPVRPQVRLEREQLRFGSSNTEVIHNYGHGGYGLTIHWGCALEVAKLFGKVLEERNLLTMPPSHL

Consider `COc1c(C)cnc(C[S+]([O-])c2nc3ccc(O)cc3[nH]2)c1C` (stereo not drawn) [RS-D7, reference compound], for which the “Effect on MK-801 induced hyperlocomotion (open field)” value in experiment [1] (100 mg/kg P.O.) is “did not display the treatment effect”; in experiment [1] (200 mg/kg P.O.) it was “rescued the MK-801 induced hyperlocomotion”; in experiment [1] (400 mg/kg P.O.), “rescued the MK-801 induced hyperlocomotion”. Further, in experiment [1], the “Effect on MK-801-induced hyperlocomotion (FIG. 1)” value is “can rescue the MK-801-induced hyperlocomotion”. This compound came in with an IC50 against porcine kidney DAO of 1.19 µM. In addition, the “Effect on MK-801 induced anhedonia (sucrose preference)” value in experiment [2] (100 mg/kg P.O.), in experiment [2] (200 mg/kg P.O.) and in experiment [2] (400 mg/kg P.O.) was “rescued the MK-801 induced anhedonia deficit” in each case. In experiment [2], the “Effect on anhedonia after acute MK-801 injection (FIG. 2)” value is “rescue the anhedonia after acute MK-801 injection”.
On to `COc1c(C)cnc(CSc2nc3cc(C(=O)O)ccc3n2CCC2=CCCCC2)c1C` [compound 12083, 1-(2-(cyclohex-1-en-1-yl)ethyl)-2-(((4-methoxy-3,5-dimethylpyridin-2-yl)methyl)thio)-1H-benzo[d]imidazole-5-carboxylic acid], for which the “Effect on MK-801 induced hyperlocomotion (open field)” value in experiment [1] (20 mg/kg P.O.) and in experiment [1] (40 mg/kg P.O.) was “alleviated MK-801 induced hyperlocomotion deficits” each time. For the same compound, the “Effect on MK-801-induced hyperlocomotion (FIG. 1)” value in experiment [1] is “can rescue the MK-801-induced hyperlocomotion”. The compound further showed a half-maximal inhibitory concentration (IC50) against porcine kidney DAO of 367 µM. Besides, the “Effect on MK-801 induced anhedonia (sucrose preference)” value in experiment [2] (20 mg/kg P.O.) is on record as “normalized MK-801 induced anhedonia”. In addition, the “Effect on anhedonia after acute MK-801 injection (FIG. 2)” value in experiment [2] is recorded as “rescue the anhedonia after acute MK-801 injection”.
